Earlier results as cited in article PMC3346673 (Toxicological and environmental chemistry, 2012).

Tests used:
[1] = temporarily ref Risher & Amier, 2005; cited from earlier work
[2] = administered by sc injection; cited from earlier work

Row | SMILES | reduction of blood mercury levels [1] | predicted LD50 [2] [mg HgCl2 kg^−1]
1 | O=S(=O)(O)CC(S)CS (stereo not drawn) [DMPS, dimercaptopropanesulfonate] | about 20% | 
2 | O=C(O)C(S)C(S)C(=O)O (stereo not drawn) [DMSA, dimercaptosuccinic acid] | about 20% | 
3 | [Cl][Hg][Cl] [HgCl2, mercury chloride] |  | 14
